Experimental data taken from ChEMBL document CHEMBL1201862, “PubChem BioAssay data set” (2004).
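Cultured in 96-well plates, cells were exposed to test compound for 48 hours across five concentrations. At the GI50, growth is halved.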 Active and inactive are the calls of the source. Cut-off read from the data, not from the text of the source: active = GI50 up to about 1.1 µM and inactive = higher.

What was measured:
Assay in all cases: NCI-60 cell line screen, 48 h
Malme-3M = system: Malme-3M
MOLT-4 = system: MOLT-4
NCI-H460 = system: NCI-H460
NCI-H226 = system: NCI-H226
SF-268 = system: SF-268
786-0 = system: 786-0
HOP-62 = system: HOP-62
A549 = system: A549
HCT-15 = system: HCT-15
UO-31 = system: UO-31
KM12 = system: KM12
SK-MEL-5 = system: SK-MEL-5
A498 = system: A498
ACHN = system: ACHN
COLO 205 = system: COLO 205
RXF 393 = system: RXF 393
SK-OV-3 = system: SK-OV-3
SK-MEL-28 = system: SK-MEL-28

Structure (SMILES) | GI50 (Malme-3M) | GI50 (MOLT-4) | GI50 (NCI-H460) | GI50 (NCI-H226) | GI50 (SF-268) | GI50 (786-0) | GI50 (HOP-62) | GI50 (A549) | GI50 (HCT-15) [µM] | GI50 (UO-31) | GI50 (KM12) | GI50 (SK-MEL-5) | GI50 (A498) | GI50 (ACHN) | GI50 (COLO 205) | GI50 (RXF 393) | GI50 (SK-OV-3) | GI50 (SK-MEL-28)
COC1(OC)CCc2c(sc3ncnc(Nc4cccc(Br)c4)c23)C1 | 41.5 µM (inactive) | 14.2 µM (inactive) | 40.7 µM (inactive) | 43.8 µM (inactive) | 69.5 µM (inactive) | 25.1 µM (inactive) | 74.5 µM (inactive) | 25.9 µM (inactive) | 30.8 | 3.22 µM (inactive) | 33.4 µM (inactive) | 30.9 µM (inactive) | > 100 µM (inactive) | 5.71 µM (inactive) | 35.4 µM (inactive) | 22.9 µM (inactive) | > 100 µM (inactive) | 
N#CCOc1cccc(C2(N3CC=CCC3)CCCCC2)c1 | > 100 µM (inactive) | 56.6 µM (inactive) |  | > 100 µM (inactive) | > 100 µM (inactive) | > 100 µM (inactive) | > 100 µM (inactive) | > 100 µM (inactive) | > 100 | > 100 µM (inactive) | > 100 µM (inactive) | > 100 µM (inactive) | > 100 µM (inactive) | > 100 µM (inactive) | > 100 µM (inactive) |  | > 100 µM (inactive) | > 100 µM (inactive)
Cc1n[nH]c(=O)n1/N=C/c1ccc([N+](=O)[O-])cc1 | > 100 µM (inactive) | > 100 µM (inactive) | > 100 µM (inactive) | > 100 µM (inactive) | 70.6 µM (inactive) | > 100 µM (inactive) | > 100 µM (inactive) | > 100 µM (inactive) | > 100 | > 100 µM (inactive) | > 100 µM (inactive) | > 100 µM (inactive) | > 100 µM (inactive) | > 100 µM (inactive) | > 100 µM (inactive) | 61.2 µM (inactive) |  | > 100 µM (inactive)
C[n+]1ccccc1/C=C/c1ccc2c(c1)OCO2 | > 10 µM (inactive) | > 10 µM (inactive) | > 10 µM (inactive) | > 10 µM (inactive) | > 10 µM (inactive) | > 10 µM (inactive) | > 10 µM (inactive) | 4.59 µM (inactive) | > 10 |  | > 10 µM (inactive) | > 10 µM (inactive) | > 10 µM (inactive) | > 10 µM (inactive) | 4.55 µM (inactive) | > 10 µM (inactive) | > 10 µM (inactive) | > 10 µM (inactive)
O=C1CC(c2cccc([N+](=O)[O-])c2)C2(C(=O)NC(=S)NC2=O)C(c2cccc([N+](=O)[O-])c2)C1 (stereo unspecified) | 11.6 µM (inactive) | 66.4 µM (inactive) | 35.6 µM (inactive) | 21 µM (inactive) | 15.9 µM (inactive) | 34.8 µM (inactive) | 30.3 µM (inactive) | 31 µM (inactive) | 25.5 | 47.2 µM (inactive) | 26.6 µM (inactive) | 82.2 µM (inactive) | > 100 µM (inactive) | 72.1 µM (inactive) | 24.4 µM (inactive) |  | 32.7 µM (inactive) | 52.8 µM (inactive)
CC1(C)C2CC(=O)C1(C)C(O)C2Br (stereo unspecified) | > 100 µM (inactive) | > 100 µM (inactive) | > 100 µM (inactive) | > 100 µM (inactive) | > 100 µM (inactive) | > 100 µM (inactive) | > 100 µM (inactive) | > 100 µM (inactive) | > 100 | > 100 µM (inactive) | > 100 µM (inactive) | > 100 µM (inactive) | > 100 µM (inactive) | > 100 µM (inactive) |  | > 100 µM (inactive) | > 100 µM (inactive) | > 100 µM (inactive)
O=S(=O)(O)/C(=N\c1cccc(Cc2ccccc2)c1)Nc1cccc(Cc2ccccc2)c1 | 17.5 µM (inactive) | 32.1 µM (inactive) |  | 18 µM (inactive) | 17.7 µM (inactive) | 15.2 µM (inactive) | 32.6 µM (inactive) | 22.4 µM (inactive) | 17.6 | 15.8 µM (inactive) | 17.3 µM (inactive) | 18.1 µM (inactive) | 22.4 µM (inactive) | 17.4 µM (inactive) | 18.3 µM (inactive) | 16.4 µM (inactive) | 21 µM (inactive) | 19.6 µM (inactive)
O=S(=O)(N/C(=N\O)Nc1ccc(Cl)cc1)c1ccc(S(=O)(=O)c2ccccc2)s1 | 19.4 µM (inactive) | 12.9 µM (inactive) | 14.4 µM (inactive) | 14.6 µM (inactive) | 23.1 µM (inactive) | 29.7 µM (inactive) | 26.5 µM (inactive) | 28.6 µM (inactive) | 28.1 | 19.4 µM (inactive) | 20.6 µM (inactive) | 11.2 µM (inactive) | 15.5 µM (inactive) | 20 µM (inactive) | 15.7 µM (inactive) | 24 µM (inactive) |  | 17.7 µM (inactive)
O=c1[nH]cc(F)c(=O)[nH]1 [FLUOROURACIL] | 22.5 µM (inactive) | 14 µM (inactive) | 1.05 µM (active) | 250 µM (inactive) | 51.4 µM (inactive) | 11.9 µM (inactive) | 21.8 µM (inactive) | 2.11 µM (inactive) |  | 5.64 µM (inactive) | 9.51 µM (inactive) | 11.6 µM (inactive) | 10.2 µM (inactive) | 9.62 µM (inactive) |  | 54.1 µM (inactive) | 171 µM (inactive) | 50.2 µM (inactive)
